Where two headings read alike, the source gives them in different places.
Experiments:
[1] = test system: Key Grass and Sedge Weeds as well as Grass Crops; test: Post-emergent Test II herbicidal activity (Table 6); assay type: in vivo; conditions: post-emergence, 336 h; for pest or weed control at 70 g/ha: 70 g ai/ha; for pest or weed control at 140 g/ha: 140 g ai/ha
How it was run: (§1)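 Scoring: visual, 0–100% injury at 14 d versus untreated. Treatment: overhead track spray, 187 L/ha, onto plants at the first–second true leaf stage. Growth: greenhouse, ~15 h light, 23–29 °C day, 22–28 °C night.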

[2] = test system: Key Broadleaf Weed and Crop Species; test: Post-emergent Test II herbicidal activity (Table 5); assay type: in vivo; conditions: post-emergence, 336 h, 14 days after application; for pest or weed control at 70 g/ha: application rate 70 g ai/ha; for pest or weed control at 140 g/ha: application rate 140 g ai/ha
How it was run: as §1

[3] = CYPES: yellow nutsedge (Cyperus esculentus), read-out: Visual Growth Reduction (%) 14 Days After Application, CYPES
[4] = DIGSA: crabgrass (Digitaria sanguinalis), read-out: Visual Growth Reduction (%) 14 Days After Application, DIGSA
[5] = ORYSA: rice (Oryza sativa), crop, read-out: Visual Growth Reduction (%) 14 Days After Application, ORYSA
[6] = SETFA: giant foxtail (Setaria faberi), read-out: Visual Growth Reduction (%) 14 Days After Application, SETFA
[7] = SORVU: grain sorghum (Sorghum vulgare), read-out: Visual Growth Reduction (%) 14 Days After Application, SORVU
[8] = TRZSS (wheat, Triticum aestivum), crop, read-out: Visual Growth Reduction (%) 14 Days After Application, TRZSS
[9] = ZEAMX: maize, corn (Zea mays), crop, read-out: Visual Growth Reduction (%) 14 Days After Application, ZEAMX
[10] = ABUTH: velvetleaf (Abutilon theophrasti), read-out: Visual Growth Reduction (%) 14 Days After Application, ABUTH
[11] = AMARE: redroot pigweed (Amaranthus retroflexus), read-out: Visual Growth Reduction (%) 14 Days After Application, AMARE
[12] = BRSNN: oilseed-rape, canola (Brassica napus), read-out: Visual Growth Reduction (%) 14 Days After Application, BRSNN
[13] = CHEAL: lambsquarters (Chenopodium album), read-out: Visual Growth Reduction (%) 14 Days After Application, CHEAL
[14] = EPHHL: wild poinsettia (Euphorbia heterophylla), read-out: Visual Growth Reduction (%) 14 Days After Application, EPHHL
[15] = HELAN: sunflower (Helianthus annuus), read-out: Visual Growth Reduction (%) 14 Days After Application, HELAN
[16] = VIOTR: wild pansy (Viola tricolor), read-out: Visual Growth Reduction (%) 14 Days After Application, VIOTR

SMILES: COC(=O)c1nc(-c2ccc(OC(F)F)c(F)c2)c(F)c(N)c1Cl [Compound 152]
- pest or weed control at 70 g/ha [1, 3]: 60 to 74%
- pest or weed control at 140 g/ha [1, 3]: 95 to 100%
- pest or weed control at 70 g/ha [1, 4]: 45 to 59%
- pest or weed control at 140 g/ha [1, 4]: 75 to 84%
- pest or weed control at 140 g/ha ([1]; ECHCG: barnyardgrass (Echinochloa crus-galli), read-out: Visual Growth Reduction (%) 14 Days After Application, ECHCG): 85 to 94%
- pest or weed control at 70 g/ha [1, 5]: 0 to 29%
- pest or weed control at 140 g/ha [1, 5]: 0 to 29%
- pest or weed control at 70 g/ha [1, 6]: 0 to 29%
- pest or weed control at 140 g/ha [1, 6]: 45 to 59%
- pest or weed control at 70 g/ha [1, 7]: 45 to 59%
- pest or weed control at 140 g/ha [1, 7]: 45 to 59%
- pest or weed control at 70 g/ha [1, 8]: 0 to 29%
- pest or weed control at 140 g/ha [1, 8]: 0 to 29%
- pest or weed control at 70 g/ha [1, 9]: 95 to 100%
- pest or weed control at 140 g/ha [1, 9]: 95 to 100%
- melting point: 112 to 114 °C
- pest or weed control at 70 g/ha [2, 10]: 85 to 94%
- pest or weed control at 140 g/ha [2, 10]: 85 to 94%
- pest or weed control at 70 g/ha [2, 11]: 85 to 94%
- pest or weed control at 140 g/ha [2, 11]: 85 to 94%
- pest or weed control at 70 g/ha [2, 12]: 85 to 94%
- pest or weed control at 140 g/ha [2, 12]: 85 to 94%
- pest or weed control at 70 g/ha [2, 13]: 85 to 94%
- pest or weed control at 140 g/ha [2, 13]: 85 to 94%
- pest or weed control at 70 g/ha [2, 14]: 95 to 100%
- pest or weed control at 140 g/ha [2, 14]: 95 to 100%
- pest or weed control at 70 g/ha [2, 15]: 75 to 84%
- pest or weed control at 140 g/ha [2, 15]: 85 to 94%
- pest or weed control at 70 g/ha [2, 16]: 0 to 29%
- pest or weed control at 140 g/ha [2, 16]: 0 to 29%

— patent US9113629B2, “4-amino-6-(4-substituted-phenyl)-picolinates and 6-amino-2-(4-substituted-phenyl)-pyrimidine-4-carboxylates and their use as herbicides” (DOW AGROSCIENCES LLC, priority 2013, dated 2015)
